This data set relates to femoral nerve. Description: Femoral nerve block with lidocaine injected under echographic/ultrasound control. It counts as in vivo, human. Here is the method: To accomplish femoral nerve block, an appropriate amount of local anesthetic is injected in the vicinity of femoral nerve close to the femoral artery under ultrasound control. After anesthesia takes effect, a needle is inserted through the skin into the vein to be treated and an optical fiber is introduced inside it. A typical procedure to carry out this task is to insert a guide wire inside the vein through needle's lumen, after the anesthesia has been introduced and takes effect. Once the guide wire is inserted, a dilator is used to slightly increase the size of the punction made onto the skin, in order to accomplish an easy catheter insertion. After catheter is inserted, guide wire is extracted and optical fiber is inserted through the catheter inside the vein and is advanced to the desired start position.
A main objective of this femoral block is to achieve sensory nerve function for blockage only, thus the least amount of lidocaine used yields the least probability for motor function to be affected. […] As a consequence, there is some minimal amount needed, which might differ by patient and procedure for an adequate and complete sensory block.
Lidocaine solutions much above 0.5% are thus not preferred, as the likelihood of concomitant loss of motor control along with the desired sensory blockage becomes too great, rendering patient recovery period longer. Concentration of other local anesthetics, with differing activity, would have a somewhat different effective range of preferred use.
A safe and effective femoral block procedure is achieved by sequentially carrying out the following steps: • 1. Attach monitors and if necessary give light sedation. • 2. Put patient in supine position with the operative leg slightly abducted. • 3. Prepare the groin. • 4. Place a transducer with the appropriate frequency range (10-12 MHz) along the inguinal crease. If the femoral artery and nerve are deep (>4 cm), use a 7 MHz transducer. • 5. Optimize machine imaging capability; select appropriate depth of e d (usually within 1-3 cm), focus range and gain. • 6. Identify the femoral artery. […]

With `CCN(CC)CC(=O)Nc1c(C)cccc1C` [lidocaine], the “anesthetic effect (sensory femoral nerve block)” value (0.1% lidocaine, femoral block) is “functioned well”. Also, under “20 ml of 1% lidocaine, femoral block”, the motor function blockage result is listed as “also blocked motor function”. Besides, where the note is “20 ml of lidocaine, concentration 0.1% to 0.5%, injected under echographic control”, the femoral block entry is listed as “accomplish the femoral block”.

Values taken from patent publication US20100234832A1, “METHOD FOR VASCULAR TREATMENT” (priority 2009, published 2010).
